Measured values: ChEMBL document CHEMBL4138259, “Discovery of JTZ-951: A HIF Prolyl Hydroxylase Inhibitor for the Treatment of Renal Anemia” (ACS Med Chem Lett, 2017)
Blank lines part the entries; values can stand above or below the compound they belong to.

Key:
Mus musculus = assay: Upregulation of plasma EPO level in Balb/c mouse at 10 mg/kg, po administered as single dose measured after 8 hrs by ELISA; type: functional
in vitro = conditions: human, Caco-2
Egl nine homolog 1 = Egl nine homolog 1 (Homo sapiens, UniProt Q9GZT9); assay: Inhibition of PHD2 in human Hep3B cells assessed as increase in EPO release after 24 hrs by ELISA; type: cell-based
Sequence of Egl nine homolog 1 (Q9GZT9 whole entry): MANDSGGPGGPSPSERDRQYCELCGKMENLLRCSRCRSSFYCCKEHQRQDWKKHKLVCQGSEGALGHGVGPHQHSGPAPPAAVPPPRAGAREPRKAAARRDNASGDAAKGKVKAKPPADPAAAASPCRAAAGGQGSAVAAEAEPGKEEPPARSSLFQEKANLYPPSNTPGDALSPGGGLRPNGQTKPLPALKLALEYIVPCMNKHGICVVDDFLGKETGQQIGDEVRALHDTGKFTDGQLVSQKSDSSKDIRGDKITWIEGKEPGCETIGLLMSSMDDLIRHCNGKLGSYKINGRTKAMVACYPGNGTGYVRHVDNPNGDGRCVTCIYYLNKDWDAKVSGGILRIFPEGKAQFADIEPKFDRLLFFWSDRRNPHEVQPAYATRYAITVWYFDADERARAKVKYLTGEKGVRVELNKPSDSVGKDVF

Rattus norvegicus [1] = assay: Upregulation of plasma EPO level in CD(SD) rat at 10 mg/kg, po administered as single dose measured after 8 hrs by RIA; type: functional
Rattus norvegicus [2] = assay: Toxicity in CD(SD) rat assessed as induction of anorexia at 100 mg/kg, po administered as single dose; type: organism-based; conditions: in vivo
Rattus norvegicus [3] = assay: Antianemic activity in po dosed CD(SD) rat assessed as increase in hemoglobin levels administered once daily for 28 days; type: functional, organism-based
Cytochrome P450 3A4 = Cytochrome P450 3A4 (Homo sapiens, UniProt P08684); assay: Inhibition of CYP3A4 in human liver microsomes using midozolam as substrate by LC-MS/MS analysis; type: ADME
Sequence of Cytochrome P450 3A4 (P08684 whole entry): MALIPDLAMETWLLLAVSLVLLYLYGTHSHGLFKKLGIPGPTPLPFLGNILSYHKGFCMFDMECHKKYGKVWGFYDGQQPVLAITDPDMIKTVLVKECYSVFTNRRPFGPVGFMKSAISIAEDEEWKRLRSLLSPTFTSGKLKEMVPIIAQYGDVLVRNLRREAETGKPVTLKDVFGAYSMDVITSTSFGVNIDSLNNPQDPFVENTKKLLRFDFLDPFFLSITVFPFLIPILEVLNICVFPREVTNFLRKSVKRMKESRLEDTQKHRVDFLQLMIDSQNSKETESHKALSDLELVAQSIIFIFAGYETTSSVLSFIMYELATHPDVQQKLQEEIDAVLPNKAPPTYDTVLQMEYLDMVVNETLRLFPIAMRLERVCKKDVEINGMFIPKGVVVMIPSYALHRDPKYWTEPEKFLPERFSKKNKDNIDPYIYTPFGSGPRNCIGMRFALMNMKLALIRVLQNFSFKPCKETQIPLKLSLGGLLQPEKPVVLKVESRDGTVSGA

Cytochrome P450 3A5 = Cytochrome P450 3A5 (Homo sapiens, UniProt P20815); assay: Inhibition of CYP3A5 in human liver microsomes using midazolam as substrate by LC-MS/MS analysis; type: ADME
Sequence of Cytochrome P450 3A5 (P20815 whole entry): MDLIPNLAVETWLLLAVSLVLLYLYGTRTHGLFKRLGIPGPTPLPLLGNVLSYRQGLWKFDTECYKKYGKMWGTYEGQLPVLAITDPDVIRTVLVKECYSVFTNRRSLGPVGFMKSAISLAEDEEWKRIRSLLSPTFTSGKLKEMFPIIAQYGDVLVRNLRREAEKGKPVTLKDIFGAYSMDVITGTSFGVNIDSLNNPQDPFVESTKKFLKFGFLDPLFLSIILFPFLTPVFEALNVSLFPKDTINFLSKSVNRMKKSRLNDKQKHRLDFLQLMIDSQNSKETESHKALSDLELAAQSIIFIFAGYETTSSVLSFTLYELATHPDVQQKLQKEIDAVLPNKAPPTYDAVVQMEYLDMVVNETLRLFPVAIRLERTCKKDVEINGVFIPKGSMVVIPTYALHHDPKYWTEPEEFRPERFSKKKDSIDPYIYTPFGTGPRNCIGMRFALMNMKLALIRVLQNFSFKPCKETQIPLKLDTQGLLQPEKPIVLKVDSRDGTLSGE

Cytochrome P450 2C9 = Cytochrome P450 2C9 (Homo sapiens, UniProt P11712); assay: Inhibition of CYP2C9 in human liver microsomes by LC-MS/MS analysis; type: ADME
Sequence of Cytochrome P450 2C9 (P11712 whole entry): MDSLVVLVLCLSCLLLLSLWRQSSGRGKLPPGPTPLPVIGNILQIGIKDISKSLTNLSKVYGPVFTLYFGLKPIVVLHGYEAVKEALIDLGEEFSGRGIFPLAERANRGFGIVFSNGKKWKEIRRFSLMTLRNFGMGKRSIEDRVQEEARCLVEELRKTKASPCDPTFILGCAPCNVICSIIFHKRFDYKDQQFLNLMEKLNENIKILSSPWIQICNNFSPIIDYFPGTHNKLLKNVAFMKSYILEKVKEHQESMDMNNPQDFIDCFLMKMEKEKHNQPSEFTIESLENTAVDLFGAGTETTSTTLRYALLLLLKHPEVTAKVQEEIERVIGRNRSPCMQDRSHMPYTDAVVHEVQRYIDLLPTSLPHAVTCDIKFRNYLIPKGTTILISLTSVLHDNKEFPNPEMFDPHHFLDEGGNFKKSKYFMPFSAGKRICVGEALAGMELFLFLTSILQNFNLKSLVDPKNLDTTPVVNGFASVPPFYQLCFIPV

Cytochrome P450 2D6 = Cytochrome P450 2D6 (Homo sapiens, UniProt P10635); assay: Inhibition of CYP2D6 in human liver microsomes by LC-MS/MS analysis; type: ADME
Sequence of Cytochrome P450 2D6 (P10635 whole entry): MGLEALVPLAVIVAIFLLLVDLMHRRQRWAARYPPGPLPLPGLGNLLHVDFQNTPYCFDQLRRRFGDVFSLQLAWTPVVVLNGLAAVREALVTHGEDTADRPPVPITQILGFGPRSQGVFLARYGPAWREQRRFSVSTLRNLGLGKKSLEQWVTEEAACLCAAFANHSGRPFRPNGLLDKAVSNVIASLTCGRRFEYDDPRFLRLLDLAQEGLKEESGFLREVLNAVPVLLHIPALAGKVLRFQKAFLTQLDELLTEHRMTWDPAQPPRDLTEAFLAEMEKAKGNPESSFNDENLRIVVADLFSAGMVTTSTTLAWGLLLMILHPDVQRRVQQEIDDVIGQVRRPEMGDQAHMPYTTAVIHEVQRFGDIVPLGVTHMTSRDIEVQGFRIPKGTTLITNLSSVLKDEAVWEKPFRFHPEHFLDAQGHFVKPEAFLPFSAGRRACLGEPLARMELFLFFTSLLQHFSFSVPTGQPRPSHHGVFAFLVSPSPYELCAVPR

Cytochrome P450 1A2 = biological target: T1, Cytochrome P450 1A2 (Homo sapiens, UniProt P05177); assay: Inhibition of CYP1A2 in human liver microsomes by LC-MS/MS analysis; type: ADME
T1 sequence (P05177 whole entry): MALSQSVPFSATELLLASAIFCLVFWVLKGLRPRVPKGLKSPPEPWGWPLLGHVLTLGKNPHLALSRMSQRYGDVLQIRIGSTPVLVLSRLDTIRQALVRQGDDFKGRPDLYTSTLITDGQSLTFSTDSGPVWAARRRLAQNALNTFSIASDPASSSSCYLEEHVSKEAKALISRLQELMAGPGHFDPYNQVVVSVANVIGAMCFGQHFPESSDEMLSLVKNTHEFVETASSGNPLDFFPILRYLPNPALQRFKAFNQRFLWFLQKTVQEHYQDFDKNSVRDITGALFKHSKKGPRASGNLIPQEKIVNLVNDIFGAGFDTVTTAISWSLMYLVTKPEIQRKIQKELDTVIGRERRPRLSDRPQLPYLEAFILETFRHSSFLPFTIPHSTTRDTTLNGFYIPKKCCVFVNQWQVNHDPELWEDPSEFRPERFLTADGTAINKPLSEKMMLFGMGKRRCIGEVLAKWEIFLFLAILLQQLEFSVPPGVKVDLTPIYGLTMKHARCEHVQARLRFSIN

Cytochrome P450 2A6 = biological target: T2, Cytochrome P450 2A6 (Homo sapiens, UniProt P11509); assay: Inhibition of CYP2A6 in human liver microsomes by LC-MS/MS analysis; type: ADME
T2 sequence (P11509 whole entry): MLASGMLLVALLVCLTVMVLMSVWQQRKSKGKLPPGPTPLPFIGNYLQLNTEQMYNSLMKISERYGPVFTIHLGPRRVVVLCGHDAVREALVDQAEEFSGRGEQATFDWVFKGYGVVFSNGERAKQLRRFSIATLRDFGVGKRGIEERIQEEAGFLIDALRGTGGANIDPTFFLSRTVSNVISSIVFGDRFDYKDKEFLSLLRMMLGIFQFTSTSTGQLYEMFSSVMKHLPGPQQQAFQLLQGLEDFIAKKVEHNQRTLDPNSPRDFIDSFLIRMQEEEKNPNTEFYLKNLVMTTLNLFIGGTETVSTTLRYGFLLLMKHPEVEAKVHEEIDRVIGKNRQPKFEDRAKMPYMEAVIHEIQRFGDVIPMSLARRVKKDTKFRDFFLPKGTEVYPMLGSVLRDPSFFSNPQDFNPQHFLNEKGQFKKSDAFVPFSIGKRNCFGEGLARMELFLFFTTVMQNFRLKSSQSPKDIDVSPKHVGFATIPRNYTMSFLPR

Cytochrome P450 2C19 = Cytochrome P450 2C19 (Homo sapiens, UniProt P33261); assay: Inhibition of CYP2C19 in human liver microsomes by LC-MS/MS analysis; type: ADME
Sequence of Cytochrome P450 2C19 (P33261 whole entry): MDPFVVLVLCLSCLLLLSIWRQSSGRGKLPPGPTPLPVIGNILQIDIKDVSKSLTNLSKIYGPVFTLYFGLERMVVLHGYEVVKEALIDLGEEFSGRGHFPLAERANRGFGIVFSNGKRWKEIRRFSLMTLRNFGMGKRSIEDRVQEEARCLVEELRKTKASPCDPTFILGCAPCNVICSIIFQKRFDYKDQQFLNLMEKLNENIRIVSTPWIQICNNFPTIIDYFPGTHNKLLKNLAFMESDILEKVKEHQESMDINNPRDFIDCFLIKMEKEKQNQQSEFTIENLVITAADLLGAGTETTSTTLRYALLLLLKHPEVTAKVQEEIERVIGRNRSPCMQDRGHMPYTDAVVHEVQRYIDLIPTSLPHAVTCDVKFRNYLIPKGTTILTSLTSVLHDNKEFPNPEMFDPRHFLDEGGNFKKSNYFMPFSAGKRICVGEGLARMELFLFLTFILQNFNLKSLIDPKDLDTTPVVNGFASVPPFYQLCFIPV

Cytochrome P450 2C8 = biological target: T3, Cytochrome P450 2C8 (Homo sapiens, UniProt P10632); assay: Inhibition of CYP2C8 in human liver microsomes by LC-MS/MS analysis; type: ADME
T3 sequence (P10632 whole entry): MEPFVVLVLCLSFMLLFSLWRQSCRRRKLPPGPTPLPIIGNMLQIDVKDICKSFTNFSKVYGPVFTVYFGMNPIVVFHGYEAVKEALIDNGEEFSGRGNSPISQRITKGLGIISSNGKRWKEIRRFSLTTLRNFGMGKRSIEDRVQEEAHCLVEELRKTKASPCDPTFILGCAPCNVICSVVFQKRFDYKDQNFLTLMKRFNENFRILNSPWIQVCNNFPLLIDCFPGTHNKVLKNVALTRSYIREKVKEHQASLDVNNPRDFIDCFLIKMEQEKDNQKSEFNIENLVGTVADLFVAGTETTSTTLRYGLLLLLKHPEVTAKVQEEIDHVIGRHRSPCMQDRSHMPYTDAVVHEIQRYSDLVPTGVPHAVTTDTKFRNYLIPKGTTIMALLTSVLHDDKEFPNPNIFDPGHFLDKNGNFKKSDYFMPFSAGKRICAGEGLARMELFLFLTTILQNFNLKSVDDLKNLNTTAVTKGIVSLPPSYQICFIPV

Cytochrome P450 2B6 = biological target: T4, Cytochrome P450 2B6 (Homo sapiens, UniProt P20813); assay: Inhibition of CYP2B6 in human liver microsomes by LC-MS/MS analysis; type: ADME
T4 sequence (P20813 whole entry): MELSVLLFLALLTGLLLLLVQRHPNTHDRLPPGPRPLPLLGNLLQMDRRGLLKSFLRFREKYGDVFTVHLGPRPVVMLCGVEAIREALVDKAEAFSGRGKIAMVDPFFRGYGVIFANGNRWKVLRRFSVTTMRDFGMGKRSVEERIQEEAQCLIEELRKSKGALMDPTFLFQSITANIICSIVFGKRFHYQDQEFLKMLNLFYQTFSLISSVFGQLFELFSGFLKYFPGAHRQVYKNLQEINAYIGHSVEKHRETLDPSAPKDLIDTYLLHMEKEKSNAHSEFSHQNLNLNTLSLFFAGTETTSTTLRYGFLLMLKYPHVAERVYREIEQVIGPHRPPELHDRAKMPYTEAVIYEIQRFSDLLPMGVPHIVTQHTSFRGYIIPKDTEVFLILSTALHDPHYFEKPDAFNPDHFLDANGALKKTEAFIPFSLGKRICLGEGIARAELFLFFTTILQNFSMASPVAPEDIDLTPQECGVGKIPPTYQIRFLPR

[4] = biological target: Voltage-gated inwardly rectifying potassium channel KCNH2 (Homo sapiens, UniProt Q12809); assay: Inhibition of human ERG expressed in HEK293 cells at holding potential of -80 mV by whole cell patch clamp method; type: cell-based
Sequence of Voltage-gated inwardly rectifying potassium channel KCNH2 (Q12809 whole entry): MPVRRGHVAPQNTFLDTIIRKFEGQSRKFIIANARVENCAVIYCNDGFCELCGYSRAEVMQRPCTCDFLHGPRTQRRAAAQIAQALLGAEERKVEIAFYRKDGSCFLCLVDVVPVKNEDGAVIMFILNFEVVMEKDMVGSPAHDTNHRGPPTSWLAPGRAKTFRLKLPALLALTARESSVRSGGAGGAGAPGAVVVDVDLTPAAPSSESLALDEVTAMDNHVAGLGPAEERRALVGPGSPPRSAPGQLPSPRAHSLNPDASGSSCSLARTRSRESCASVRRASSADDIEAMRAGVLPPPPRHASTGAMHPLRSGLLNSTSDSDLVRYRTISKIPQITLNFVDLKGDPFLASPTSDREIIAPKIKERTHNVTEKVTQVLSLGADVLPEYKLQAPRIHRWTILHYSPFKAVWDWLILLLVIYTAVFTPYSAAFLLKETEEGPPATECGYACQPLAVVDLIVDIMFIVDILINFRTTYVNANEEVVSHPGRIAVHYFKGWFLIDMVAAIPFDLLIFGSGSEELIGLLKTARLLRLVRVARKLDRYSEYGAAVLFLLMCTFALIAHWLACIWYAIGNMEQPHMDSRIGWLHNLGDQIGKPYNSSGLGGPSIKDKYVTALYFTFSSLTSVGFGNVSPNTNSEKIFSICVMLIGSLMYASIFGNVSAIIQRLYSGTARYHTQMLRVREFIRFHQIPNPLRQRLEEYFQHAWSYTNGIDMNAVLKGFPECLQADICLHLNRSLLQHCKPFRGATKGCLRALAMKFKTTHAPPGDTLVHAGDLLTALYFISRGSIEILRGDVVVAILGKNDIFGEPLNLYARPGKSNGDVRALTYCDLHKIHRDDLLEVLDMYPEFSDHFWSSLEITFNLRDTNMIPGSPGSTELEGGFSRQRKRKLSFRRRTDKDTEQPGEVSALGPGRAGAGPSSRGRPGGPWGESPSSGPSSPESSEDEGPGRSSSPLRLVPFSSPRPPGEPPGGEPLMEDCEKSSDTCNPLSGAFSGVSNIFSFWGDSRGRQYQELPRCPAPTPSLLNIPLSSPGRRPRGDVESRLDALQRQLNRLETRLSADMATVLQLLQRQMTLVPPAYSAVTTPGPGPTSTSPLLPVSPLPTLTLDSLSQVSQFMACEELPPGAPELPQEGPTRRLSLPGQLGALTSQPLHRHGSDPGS

[5] = Half life in CD(SD) rat at 0.3 mg/kg, iv; type: ADME, organism-based; conditions: in vivo
[6] = Total clearance in CD(SD) rat at 0.3 mg/kg, iv; type: ADME, organism-based; conditions: in vivo
[7] = Volume of distribution at steady state in CD(SD) rat at 0.3 mg/kg, iv; type: ADME, organism-based; conditions: in vivo, read-out: Vdss
[8] = MRT in CD(SD) rat at 0.3 mg/kg, iv; type: ADME, organism-based; conditions: in vivo
[9] = Tmax in CD(SD) rat at 1 mg/kg, po; type: ADME, organism-based; conditions: in vivo
[10] = Cmax in CD(SD) rat at 1 mg/kg, po; type: ADME, organism-based; design: dose 1 mg/kg, route oral; conditions: in vivo
[11] = Oral bioavailability in CD(SD) rat at 1 mg/kg; type: ADME, organism-based; conditions: in vivo
[12] = Solubility of the compound in FaSSIF after 4 hrs by LC-MS analysis; type: physicochemical
[13] = Solubility of the compound in FeSSIF after 4 hrs by LC-MS analysis; type: physicochemical
[14] = Metabolic stability in human pooled liver microsomes assessed as compound remaining at 10 uM after 120 mins in presence of NADPH by Radio-HPLC analysis; type: ADME, microsome; conditions: read-out: Stability
[15] = Metabolic stability in Sprague-Dawley rat liver microsomes assessed as compound remaining at 10 uM after 120 mins in presence of NADPH by Radio-HPLC analysis; type: ADME, microsome; conditions: read-out: Stability
[16] = Metabolic stability in Beagle dog liver microsomes assessed as compound remaining at 10 uM after 120 mins in presence of NADPH by Radio-HPLC analysis; type: ADME, Canis lupus familiaris, microsome; conditions: read-out: Stability
[17] = Metabolic stability in cynomolgus monkey liver microsomes assessed as compound remaining at 10 uM after 120 mins in presence of NADPH by Radio-HPLC analysis; type: ADME, Macaca fascicularis, microsome; conditions: read-out: Stability

SMILES: O=C(O)CNC(=O)c1c(O)ccn2ccnc12
- Papp A→B at 2 h, 25 µM (in vitro): 0.8 ×10⁻⁶ cm/s

SMILES: Cl.O=C(O)CNC(=O)c1c(O)cc(C2CCCCC2)c2ncnn12
- Activity (Mus musculus): <450 pg/mL
- Papp A→B at 2 h, 25 µM (in vitro): 18 ×10⁻⁶ cm/s

SMILES: Cl.O=C(O)CNC(=O)c1c(O)cc(CCc2ccccc2)n2ncnc12
- EC50 (Egl nine homolog 1): 5.7 µM
- Activity (Mus musculus): 6500 pg/mL
- Activity (Rattus norvegicus [1]): 17000 pg/mL
- Activity (Rattus norvegicus [2]): Non-Toxic
- Activity (Rattus norvegicus [3]): Dose-dependent effect
- IC50 (Cytochrome P450 3A4): > 100 µM
- IC50 (Cytochrome P450 3A5): > 100 µM
- IC50 (Cytochrome P450 2C9): > 100 µM
- IC50 (Cytochrome P450 2D6): > 100 µM
- IC50 (Cytochrome P450 1A2): > 100 µM
- IC50 (Cytochrome P450 2A6): > 100 µM
- IC50 (Cytochrome P450 2C19): > 100 µM
- IC50 (Cytochrome P450 2C8): > 100 µM
- IC50 (Cytochrome P450 2B6): > 100 µM
- IC50 [4]: > 100 µM
- half-life [5]: 1.4 h
- clearance [6]: 2.7 mL/min/kg
- Vd [7]: 0.28 L/kg
- MRT [8]: 1.8 h
- Tmax [9]: 0.33 h
- Cmax [10]: 2700 ng/mL
- bioavailability [11]: 75%
- solubility at 4 h [12]: > 2900 µM
- solubility at 4 h [13]: 1300 µM
- remaining at 2 h, 10 µM [14]: 94%
- remaining at 2 h, 10 µM [15]: 98%
- remaining at 2 h, 10 µM [16]: 100%
- remaining at 2 h, 10 µM [17]: 94%
- Papp A→B at 2 h, 25 µM (in vitro): 13 ×10⁻⁶ cm/s

SMILES: O=C(O)CNC(=O)c1nc(Cl)c2ccccc2c1O
- Papp A→B at 2 h, 25 µM (in vitro): 63 ×10⁻⁶ cm/s

Further lines, with some results ahead:

- Papp A→B at 2 h, 25 µM (in vitro): 2.1 ×10⁻⁶ cm/s
SMILES: CCCc1cc(O)c(C(=O)NCC(=O)O)c2ncnn12.Cl
- Activity (Mus musculus): <300 pg/mL

- Papp A→B at 2 h, 25 µM (in vitro): < 0.4 ×10⁻⁶ cm/s
SMILES: Cl.O=C(O)CNC(=O)c1c(O)ccn2cnnc12

- Papp A→B at 2 h, 25 µM (in vitro): 21 ×10⁻⁶ cm/s
SMILES: Cl.O=C(O)CNC(=O)c1c(O)cc(C2CCCCC2)n2ncnc12
- Activity (Mus musculus): 540 pg/mL

- Papp A→B at 2 h, 25 µM (in vitro): 0.86 to 0.9 ×10⁻⁶ cm/s
SMILES: Cl.O=C(O)CNC(=O)c1c(O)ccn2ncnc12

- Papp A→B at 2 h, 25 µM (in vitro): 0.4 ×10⁻⁶ cm/s
SMILES: Cl.O=C(O)CNC(=O)c1c(O)ccc2ncnn12

- Papp A→B at 2 h, 25 µM (in vitro): 12 ×10⁻⁶ cm/s
SMILES: Cl.O=C(O)CNC(=O)c1c(O)cc(CCc2ccc(F)cc2)n2ncnc12
- Activity (Mus musculus): 1000 pg/mL
